Measurements as given in article PMC5078040 (Oncotarget, 2016).

How the values were obtained:
Assay in all cases: KinomeScan
Assay type in all cases: binding
Settings in all cases: 1uM
ABL2 = biological target: T1, ABL2 (Homo sapiens, UniProt P42684)
T1 construct: purchased DiscoveRx KINOMEscan

CSF1R-autoinhibited = biological target: T2, CSF1R-autoinhibited (Homo sapiens, UniProt P07333)
T2 construct: purchased DiscoveRx KINOMEscan

[1] = biological target: RPS6KA4(Kin.Dom.2-C-terminal) (Homo sapiens, UniProt O75676)
PFTK1 = biological target: T3, PFTK1 (Homo sapiens, UniProt O94921)
T3 construct: purchased DiscoveRx KINOMEscan

IRAK1 = biological target: T4, IRAK1 (Homo sapiens, UniProt P51617)
T4 construct: purchased DiscoveRx KINOMEscan

NEK2 = biological target: T5, NEK2 (Homo sapiens, UniProt P51955)
T5 construct: purchased DiscoveRx KINOMEscan
T5 sequence (P51955 whole entry): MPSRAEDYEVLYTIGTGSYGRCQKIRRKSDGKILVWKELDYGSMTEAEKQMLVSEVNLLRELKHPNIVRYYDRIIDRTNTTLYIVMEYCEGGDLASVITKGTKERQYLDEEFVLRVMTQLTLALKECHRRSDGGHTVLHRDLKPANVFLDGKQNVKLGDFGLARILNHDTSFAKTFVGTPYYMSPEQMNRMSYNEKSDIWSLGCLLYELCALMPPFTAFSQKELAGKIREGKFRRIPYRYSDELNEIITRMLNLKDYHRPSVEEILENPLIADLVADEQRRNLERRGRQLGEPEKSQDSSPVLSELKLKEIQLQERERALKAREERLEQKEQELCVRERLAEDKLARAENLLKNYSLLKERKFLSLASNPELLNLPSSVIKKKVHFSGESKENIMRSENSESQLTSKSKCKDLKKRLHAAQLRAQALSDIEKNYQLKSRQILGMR

PIK3CA(E545K) = biological target: T6, PIK3CA(E545K) (Homo sapiens, UniProt P42336, E545K)
T6 construct: purchased DiscoveRx KINOMEscan

KIT = biological target: T7, KIT (Homo sapiens, UniProt P10721)
T7 construct: purchased DiscoveRx KINOMEscan

PKNB(M.tuberculosis) = biological target: T8, PKNB(M.tuberculosis) (Mycobacterium tuberculosis, UniProt P9WI81)
T8 construct: purchased DiscoveRx KINOMEscan

ROCK2 = biological target: T9, ROCK2 (Homo sapiens, UniProt O75116)
T9 construct: purchased DiscoveRx KINOMEscan

CSF1R = biological target: T10, CSF1R (Homo sapiens, UniProt P07333)
T10 construct: purchased DiscoveRx KINOMEscan

ULK2 = biological target: T11, ULK2 (Homo sapiens, UniProt Q8IYT8)
T11 construct: purchased DiscoveRx KINOMEscan

LKB1 = biological target: T12, LKB1 (Homo sapiens, UniProt Q15831)
T12 construct: purchased DiscoveRx KINOMEscan

KIT(L576P) = biological target: T13, KIT(L576P) (Homo sapiens, UniProt P10721, L576P)
T13 construct: purchased DiscoveRx KINOMEscan

PCTK1 = biological target: T14, PCTK1 (Homo sapiens, UniProt Q00536)
T14 construct: purchased DiscoveRx KINOMEscan

QSK = biological target: T15, QSK (Homo sapiens, UniProt Q9Y2K2)
T15 construct: purchased DiscoveRx KINOMEscan

ERBB2 = biological target: T16, ERBB2 (Homo sapiens, UniProt P04626)
T16 construct: purchased DiscoveRx KINOMEscan

RIPK5 = biological target: T17, RIPK5 (Homo sapiens, UniProt Q6XUX3)
T17 construct: purchased DiscoveRx KINOMEscan

PRKCH = biological target: T18, PRKCH (Homo sapiens, UniProt P24723)
T18 construct: purchased DiscoveRx KINOMEscan
T18 sequence (P24723 whole entry): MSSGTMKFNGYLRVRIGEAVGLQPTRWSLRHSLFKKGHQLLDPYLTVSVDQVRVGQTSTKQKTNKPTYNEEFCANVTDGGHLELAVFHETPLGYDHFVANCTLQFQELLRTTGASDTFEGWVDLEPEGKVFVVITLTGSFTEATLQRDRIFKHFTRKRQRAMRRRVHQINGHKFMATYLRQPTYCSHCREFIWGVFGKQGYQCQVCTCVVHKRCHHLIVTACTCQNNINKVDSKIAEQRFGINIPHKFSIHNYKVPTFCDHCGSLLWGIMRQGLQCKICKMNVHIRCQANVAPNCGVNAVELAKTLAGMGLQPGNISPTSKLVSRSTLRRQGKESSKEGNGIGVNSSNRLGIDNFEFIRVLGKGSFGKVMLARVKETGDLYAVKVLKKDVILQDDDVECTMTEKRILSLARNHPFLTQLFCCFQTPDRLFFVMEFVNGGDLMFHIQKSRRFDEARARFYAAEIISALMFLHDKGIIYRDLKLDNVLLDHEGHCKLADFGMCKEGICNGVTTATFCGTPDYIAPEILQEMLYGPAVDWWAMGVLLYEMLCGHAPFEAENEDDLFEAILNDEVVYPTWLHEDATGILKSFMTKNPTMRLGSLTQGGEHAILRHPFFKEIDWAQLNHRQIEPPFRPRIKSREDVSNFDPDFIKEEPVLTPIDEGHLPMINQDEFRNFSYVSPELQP

MYLK4 = biological target: T19, MYLK4 (Homo sapiens, UniProt Q86YV6)
T19 construct: purchased DiscoveRx KINOMEscan
T19 sequence (Q86YV6 whole entry): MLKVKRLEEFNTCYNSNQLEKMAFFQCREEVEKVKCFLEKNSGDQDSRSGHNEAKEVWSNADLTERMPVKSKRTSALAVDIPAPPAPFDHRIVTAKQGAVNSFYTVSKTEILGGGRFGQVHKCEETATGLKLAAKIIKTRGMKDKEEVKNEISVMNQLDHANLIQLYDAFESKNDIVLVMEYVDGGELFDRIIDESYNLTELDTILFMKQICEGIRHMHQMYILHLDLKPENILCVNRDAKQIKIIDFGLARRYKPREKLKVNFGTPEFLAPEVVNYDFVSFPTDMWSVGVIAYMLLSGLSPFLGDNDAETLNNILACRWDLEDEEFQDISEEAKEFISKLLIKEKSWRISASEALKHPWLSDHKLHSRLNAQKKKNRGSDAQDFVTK

TYRO3 = biological target: T20, TYRO3 (Homo sapiens, UniProt Q06418)
T20 construct: purchased DiscoveRx KINOMEscan
T20 sequence (Q06418 41-890): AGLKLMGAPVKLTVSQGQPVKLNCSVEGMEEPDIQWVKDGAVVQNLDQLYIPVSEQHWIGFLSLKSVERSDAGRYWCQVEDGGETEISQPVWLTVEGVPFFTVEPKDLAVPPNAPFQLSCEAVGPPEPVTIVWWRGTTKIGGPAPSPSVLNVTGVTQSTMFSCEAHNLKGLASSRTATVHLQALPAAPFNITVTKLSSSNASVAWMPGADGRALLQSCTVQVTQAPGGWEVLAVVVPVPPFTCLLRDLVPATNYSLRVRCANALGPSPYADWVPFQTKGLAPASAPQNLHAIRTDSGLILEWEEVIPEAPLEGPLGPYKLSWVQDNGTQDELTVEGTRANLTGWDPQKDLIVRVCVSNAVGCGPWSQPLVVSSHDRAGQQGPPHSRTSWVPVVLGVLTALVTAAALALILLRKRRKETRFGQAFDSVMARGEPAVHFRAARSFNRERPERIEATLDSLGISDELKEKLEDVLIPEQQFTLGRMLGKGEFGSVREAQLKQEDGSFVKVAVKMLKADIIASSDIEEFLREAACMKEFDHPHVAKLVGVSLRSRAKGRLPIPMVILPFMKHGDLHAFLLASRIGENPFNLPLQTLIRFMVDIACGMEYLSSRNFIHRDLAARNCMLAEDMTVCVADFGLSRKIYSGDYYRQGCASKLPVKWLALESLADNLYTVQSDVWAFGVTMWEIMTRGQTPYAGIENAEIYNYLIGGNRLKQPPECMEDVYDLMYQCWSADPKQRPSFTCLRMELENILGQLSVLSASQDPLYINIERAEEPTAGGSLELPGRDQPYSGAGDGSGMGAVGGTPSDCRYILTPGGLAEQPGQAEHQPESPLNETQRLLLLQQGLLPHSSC

AKT1 = biological target: T21, AKT1 (Homo sapiens, UniProt P31749)
T21 construct: purchased DiscoveRx KINOMEscan

PIK3CA = biological target: T22, PIK3CA (Homo sapiens, UniProt P42336)
T22 construct: purchased DiscoveRx KINOMEscan

MERTK = biological target: T23, MERTK (Homo sapiens, UniProt Q12866)
T23 construct: purchased DiscoveRx KINOMEscan
T23 sequence (Q12866 21-999): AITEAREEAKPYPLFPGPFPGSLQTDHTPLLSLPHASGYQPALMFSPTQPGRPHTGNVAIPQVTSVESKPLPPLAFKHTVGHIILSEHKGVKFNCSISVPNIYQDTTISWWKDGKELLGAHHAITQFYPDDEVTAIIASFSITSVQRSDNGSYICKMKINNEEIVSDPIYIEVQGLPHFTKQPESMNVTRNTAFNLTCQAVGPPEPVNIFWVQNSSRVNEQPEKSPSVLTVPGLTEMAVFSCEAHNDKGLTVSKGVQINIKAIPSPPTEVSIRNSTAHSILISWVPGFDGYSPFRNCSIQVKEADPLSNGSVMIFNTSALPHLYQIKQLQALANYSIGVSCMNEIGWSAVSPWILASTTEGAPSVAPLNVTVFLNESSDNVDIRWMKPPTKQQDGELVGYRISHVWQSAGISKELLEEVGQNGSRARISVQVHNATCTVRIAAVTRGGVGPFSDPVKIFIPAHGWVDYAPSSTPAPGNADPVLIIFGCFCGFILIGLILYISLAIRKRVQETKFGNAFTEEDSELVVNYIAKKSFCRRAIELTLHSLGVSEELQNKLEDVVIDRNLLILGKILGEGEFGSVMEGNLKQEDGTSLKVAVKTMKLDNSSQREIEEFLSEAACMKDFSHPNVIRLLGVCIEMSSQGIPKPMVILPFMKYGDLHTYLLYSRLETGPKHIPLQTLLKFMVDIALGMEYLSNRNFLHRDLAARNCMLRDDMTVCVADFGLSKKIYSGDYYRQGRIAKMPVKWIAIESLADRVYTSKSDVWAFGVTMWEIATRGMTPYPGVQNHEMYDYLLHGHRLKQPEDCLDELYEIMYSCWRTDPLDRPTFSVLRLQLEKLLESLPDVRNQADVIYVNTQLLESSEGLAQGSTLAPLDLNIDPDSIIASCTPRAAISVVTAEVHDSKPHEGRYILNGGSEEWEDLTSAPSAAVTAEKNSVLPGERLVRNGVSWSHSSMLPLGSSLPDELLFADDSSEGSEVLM

CDKL3 = biological target: T24, CDKL3 (Homo sapiens, UniProt Q8IVW4)
T24 construct: purchased DiscoveRx KINOMEscan
T24 sequence (Q8IVW4 whole entry): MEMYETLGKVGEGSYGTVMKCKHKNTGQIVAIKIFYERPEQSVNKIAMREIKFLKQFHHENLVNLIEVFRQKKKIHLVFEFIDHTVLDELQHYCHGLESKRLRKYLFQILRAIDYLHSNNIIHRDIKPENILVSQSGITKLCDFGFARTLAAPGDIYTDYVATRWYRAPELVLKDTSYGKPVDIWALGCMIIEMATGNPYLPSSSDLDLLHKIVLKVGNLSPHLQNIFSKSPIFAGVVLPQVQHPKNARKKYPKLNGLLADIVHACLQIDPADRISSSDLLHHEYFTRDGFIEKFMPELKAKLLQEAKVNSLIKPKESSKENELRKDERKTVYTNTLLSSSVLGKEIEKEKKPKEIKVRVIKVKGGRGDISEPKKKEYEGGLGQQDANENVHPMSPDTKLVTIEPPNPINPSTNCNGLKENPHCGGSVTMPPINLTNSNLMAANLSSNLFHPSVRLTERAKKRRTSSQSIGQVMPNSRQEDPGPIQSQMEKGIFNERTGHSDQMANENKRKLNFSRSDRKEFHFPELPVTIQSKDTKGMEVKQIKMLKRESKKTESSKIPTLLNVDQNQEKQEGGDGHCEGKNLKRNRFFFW

ERN1 = biological target: T25, ERN1 (Homo sapiens, UniProt O75460)
T25 construct: purchased DiscoveRx KINOMEscan

PYK2 = biological target: T26, PYK2 (Homo sapiens, UniProt Q14289)
T26 construct: purchased DiscoveRx KINOMEscan

GCN2(Kin.Dom.2,S808G) = biological target: T27, GCN2(Kin.Dom.2,S808G) (Homo sapiens, UniProt Q9P2K8, S808G)
T27 construct: GCN2(Kin.Dom.2,S808G); purchased DiscoveRx KINOMEscan
T27 sequence (Q9P2K8 590-1001 S808G limits assumed): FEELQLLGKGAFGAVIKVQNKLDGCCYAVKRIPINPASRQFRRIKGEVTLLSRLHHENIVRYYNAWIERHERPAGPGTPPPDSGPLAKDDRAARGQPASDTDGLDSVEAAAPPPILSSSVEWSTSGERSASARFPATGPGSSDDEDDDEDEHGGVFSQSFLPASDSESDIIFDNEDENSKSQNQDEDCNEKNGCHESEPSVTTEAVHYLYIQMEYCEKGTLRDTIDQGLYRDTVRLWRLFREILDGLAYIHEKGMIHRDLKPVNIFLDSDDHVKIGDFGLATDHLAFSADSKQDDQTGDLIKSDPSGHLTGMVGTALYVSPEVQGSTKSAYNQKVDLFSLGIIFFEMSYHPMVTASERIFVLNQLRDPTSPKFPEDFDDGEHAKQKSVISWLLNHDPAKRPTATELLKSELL

BMPR1B = biological target: T28, BMPR1B (Homo sapiens, UniProt O00238)
T28 construct: purchased DiscoveRx KINOMEscan

CLK4 = biological target: T29, CLK4 (Homo sapiens, UniProt Q9HAZ1)
T29 construct: purchased DiscoveRx KINOMEscan

AURKC = biological target: T30, AURKC (Homo sapiens, UniProt Q9UQB9)
T30 construct: purchased DiscoveRx KINOMEscan
T30 sequence (Q9UQB9 whole entry): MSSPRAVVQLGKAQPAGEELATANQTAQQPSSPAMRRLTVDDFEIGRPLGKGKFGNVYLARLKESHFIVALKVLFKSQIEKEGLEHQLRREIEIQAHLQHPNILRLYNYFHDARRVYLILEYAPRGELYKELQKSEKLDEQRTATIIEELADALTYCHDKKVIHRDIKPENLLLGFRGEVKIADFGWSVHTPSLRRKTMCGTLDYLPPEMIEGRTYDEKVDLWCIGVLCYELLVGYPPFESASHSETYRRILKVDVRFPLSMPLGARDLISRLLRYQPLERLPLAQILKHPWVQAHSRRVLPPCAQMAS

[2] = biological target: T31, ABL1(T315I)-nonphosphorylated (Homo sapiens, UniProt P00519, T315I)
T31 construct: purchased DiscoveRx KINOMEscan

ULK1 = biological target: T32, ULK1 (Homo sapiens, UniProt O75385)
T32 construct: purchased DiscoveRx KINOMEscan

MELK = biological target: T33, MELK (Homo sapiens, UniProt Q14680)
T33 construct: purchased DiscoveRx KINOMEscan

[3] = biological target: T34, JAK1(JH2domain-pseudokinase) (Homo sapiens, UniProt P23458)
T34 construct: JAK1(JH2domain-pseudokinase); purchased DiscoveRx KINOMEscan

ERK8 = biological target: T35, ERK8 (Homo sapiens, UniProt Q8TD08)
T35 construct: purchased DiscoveRx KINOMEscan

CLK2 = biological target: T36, CLK2 (Homo sapiens, UniProt P49760)
T36 construct: purchased DiscoveRx KINOMEscan

MEK3 = biological target: T37, MEK3 (Homo sapiens, UniProt P46734)
T37 construct: purchased DiscoveRx KINOMEscan
T37 sequence (P46734 whole entry): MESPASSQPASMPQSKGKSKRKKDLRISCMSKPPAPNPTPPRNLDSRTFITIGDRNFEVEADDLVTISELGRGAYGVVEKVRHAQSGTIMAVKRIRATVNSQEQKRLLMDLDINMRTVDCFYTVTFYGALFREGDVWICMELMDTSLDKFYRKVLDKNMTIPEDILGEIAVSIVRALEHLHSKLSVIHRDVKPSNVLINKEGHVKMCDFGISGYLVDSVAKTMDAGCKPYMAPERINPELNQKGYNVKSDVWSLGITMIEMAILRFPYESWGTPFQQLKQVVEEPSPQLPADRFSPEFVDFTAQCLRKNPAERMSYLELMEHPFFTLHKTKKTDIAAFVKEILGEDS

SRPK3 = biological target: T38, SRPK3 (Homo sapiens, UniProt Q9UPE1)
T38 construct: purchased DiscoveRx KINOMEscan

ZAP70 = biological target: T39, ZAP70 (Homo sapiens, UniProt P43403)
T39 construct: purchased DiscoveRx KINOMEscan

BUB1 = biological target: T40, BUB1 (Homo sapiens, UniProt O43683)
T40 construct: purchased DiscoveRx KINOMEscan

FGFR3(G697C) = biological target: T41, FGFR3(G697C) (Homo sapiens, UniProt P22607, G697C)
T41 construct: purchased DiscoveRx KINOMEscan

NIM1 = biological target: T42, NIM1 (Homo sapiens, UniProt Q8IY84)
T42 construct: purchased DiscoveRx KINOMEscan

Cc1nc(NC(=O)[C@@H](N)C(C)C)sc1-c1cnc(Cl)c(NS(=O)(=O)c2ccccc2)c1 [PI3KD-IN-015]
KinomeScan ABL2 (ABL2): 99 | KinomeScan CSF1R-autoinhibited (CSF1R-autoinhibited): 100 | KinomeScan RPS6KA4(Kin.Dom.2-C-terminal) [1]: 83 | KinomeScan PFTK1 (PFTK1): 100 | KinomeScan IRAK1 (IRAK1): 60 | KinomeScan NEK2 (NEK2): 100 | KinomeScan PIK3CA(E545K) (PIK3CA(E545K)): 6.4 | KinomeScan KIT (KIT): 92 | KinomeScan PKNB(M.tuberculosis) (PKNB(M.tuberculosis)): 79 | KinomeScan ROCK2 (ROCK2): 85 | KinomeScan CSF1R (CSF1R): 67 | KinomeScan ULK2 (ULK2): 79 | KinomeScan LKB1 (LKB1): 79 | KinomeScan KIT(L576P) (KIT(L576P)): 83 | KinomeScan PCTK1 (PCTK1): 93 | KinomeScan QSK (QSK): 94 | KinomeScan ERBB2 (ERBB2): 100 | KinomeScan RIPK5 (RIPK5): 83 | KinomeScan PRKCH (PRKCH): 100 | KinomeScan MYLK4 (MYLK4): 80 | KinomeScan TYRO3 (TYRO3): 100 | KinomeScan AKT1 (AKT1): 91 | KinomeScan PIK3CA (PIK3CA): 7.2 | KinomeScan MERTK (MERTK): 96 | KinomeScan CDKL3 (CDKL3): 100 | KinomeScan ERN1 (ERN1): 92 | KinomeScan PYK2 (PYK2): 95 | KinomeScan GCN2(Kin.Dom.2,S808G) (GCN2(Kin.Dom.2,S808G)): 100 | KinomeScan BMPR1B (BMPR1B): 80 | KinomeScan CLK4 (CLK4): 100 | KinomeScan AURKC (AURKC): 77 | KinomeScan ABL1(T315I)-nonphosphorylated [2]: 100 | KinomeScan ULK1 (ULK1): 74 | KinomeScan MELK (MELK): 90 | KinomeScan JAK1(JH2domain-pseudokinase) [3]: 100 | KinomeScan ERK8 (ERK8): 98 | KinomeScan CLK2 (CLK2): 90 | KinomeScan MEK3 (MEK3): 93 | KinomeScan SRPK3 (SRPK3): 100 | KinomeScan ZAP70 (ZAP70): 96 | KinomeScan BUB1 (BUB1): 100 | KinomeScan FGFR3(G697C) (FGFR3(G697C)): 100 | KinomeScan NIM1 (NIM1): 100
